According to patent publication US20100143972A1, “Method of Making Cyclic Polypeptides with Inteins” (priority 2006, published 2010):
Entries after “also recorded” stand apart in the source; their conditions may differ. No end group written: not given here.

Columns and labels:
[1] = tested on: S. aureus Agr-I (AH462) reporter strain; test: AIP activation assay, Agr-I reporter; assay type: cell-based; settings: 50 nM iAIP, TSB with 0.2% glucose, AH462, GFP
Experimental: (§1) AIP activation assays. Overnight cultures of S. aureus reporter strains were grown in TSB and sub-cultured 1:50 into TSB+0.2% glucose supplemented with indicated AIP (final volume […] concentration 50 nM). Cultures were grown in test tubes (13×100 mm) at 37° C. shaking at 250 rpm. Cell density and fluorescence was monitored using a Tecan GENios microtiter plate reader at 4, 6, 8, and 10 hours after inoculation.
(§2) In published reports, the addition of AIP samples results in a significant increase in the RNAIII levels (Ji et al., 1997). The inventors reasoned that the S. aureus media conditions are limiting the Agr response, allowing detection of AIP activation. Glucose is a common media component, and growth on glucose is known to repress RNAIII transcription (Regassa et al., 1992). When the reporter strains were grown in TSB with 0.2% glucose, the inventors observed an approximately 70% drop in GFP expression (data not shown). The addition of AIP to the glucose treated strains restores the maximal levels of RNAIII, creating a simple test for AIP activation.

AH430 (Agr-II reporter) = assay type: cell-based, S. aureus
Experimental: (§3) AIP inhibition assays. For monitoring inhibition of the Agr system, an overnight culture of the appropriate reporter strain was inoculated into TSB with chloramphenicol and grown to an optical density of 0.05 (0.25 for AH431) at 600 nm. In triplicate, 475 μl of reporter culture was aliquoted into test tubes (13×100 mm) and 25 μl of spent media or intein-generated AIP was added to each tube. As controls, separate tubes were prepared with the addition of either 25 μl of TSB or chitin elution buffer. The tubes were shaken at 250 rpm at 37° C. and assayed at the following times unless otherwise indicated: AH429, 12 hrs; AH430, 3 hrs; AH431, 4 hrs. Both cell density (optical density, 595 nm) and GFP fluorescence (excitation at 485 nm, emission at 535 nm) was measured in a Tecan GENios microtiter plate reader (Research Triangle Park, N.C.) by removing 100 μl from each tube and assaying in a microtiter plate (Corning 3606 plates). Fluorescence is reported as an average of the three samples. Control AIP samples were prepared from the appropriate S. aureus producing strains. Each strain was grown in TSB until an optical density at 600 nm of ˜2.0-2.5, the cells were pelleted, and the supernatant was filtered through a 0.2 micro syringe filter. The filtered supernatants were stored at 4° C. and used within 48 hrs.
The intein fusions were kept on resin in the presence of buffer with TCEP, a non-thiol reducing agent, added to maintain DnaB activity and keep the AIP cysteine reduced. Following incubation, the resin buffer was eluted and tested for biological activity. The bioassay is based on the observation that there are three inhibition classes among S. aureus Agr systems (FIG. 1). An S. aureus Agr-II reporter strain, AH430, has a plasmid with the RNAIII transcript promoter driving GFP expression.
Agr reporter strains. To test the iAIPs, reporter strains had to be developed for each of the Agr-I, Agr-II, and Agr-III systems. […]

[2] = tested on: Strain AH429 (Agr-I reporter); test: AIP inhibition assay, Agr-I reporter (RNAIII promoter driving GFP); assay type: cell-based, S. aureus; settings: sample diluted 20-fold into AH429 culture; GFP compared to TSB control
Experimental: as §3
(§4) Agr reporter strains. […]

[3] = tested on: Strain AH431 (Agr-III reporter); test: AIP inhibition assay, Agr-III reporter (RNAIII promoter driving GFP); assay type: cell-based, S. aureus; settings: sample diluted 20-fold into AH431 culture
Experimental: as §3, §4

[4] = tested on: S. aureus Agr-II (AH430) reporter strain; test: AIP activation assay, Agr-II reporter; assay type: cell-based; settings: 50 nM iAIP, TSB with 0.2% glucose, AH430, GFP
Experimental: as §1, §2

iAIP-I: intein-generated S. aureus AIP-I thiolactone peptide with an additional N-terminal methionine (MYSTCDFIM) (not fully specified (bridges); also: thiolactone, places not given here)
-fold activation over the TSB control, Agr-I reporter [1]: 3.0 -fold
inhibition of quorum-sensing (GFP fluorescence) in Agr-II reporter strain (AH430 (Agr-II reporter); sample diluted 20-fold into AH430 culture, untreated sample): inhibited the quorum-sensing response in strain AH430 in a dose-dependent manner; also recorded: did inhibit activity
Agr-II inhibition after hydroxylamine treatment of the sample (AH430 (Agr-II reporter); sample treated with hydroxylamine, opening the thiolactone ring, AH430): neither sample inhibited the Agr response
Agr-II inhibition after base treatment of the sample (AH430 (Agr-II reporter); sample treated with sodium hydroxide base to open the thiolactone ring, neutralized with acid, AH430): neither sample inhibited the Agr response
inhibition of quorum-sensing (GFP fluorescence) in Agr-I reporter strain [2]: did not inhibit quorum-sensing
inhibition of quorum-sensing (GFP fluorescence) in Agr-III reporter strain [3]: inhibited

iAIP-II: intein-generated S. aureus AIP-II thiolactone peptide (GVNACSSLF), N-terminal methionine completely removed (not fully specified (bridges); also: thiolactone, places not given here)
-fold activation over the TSB control, Agr-II reporter [4]: 3.8 -fold
inhibition of quorum-sensing (GFP fluorescence) in Agr-I reporter strain [2]: inhibited quorum-sensing
inhibition of quorum-sensing (GFP fluorescence) in Agr-III reporter strain [3]: inhibited quorum-sensing
